Results as given in ChEMBL document CHEMBL1201862, “PubChem BioAssay data set” (2004).
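A five-concentration, 48-hour dose response in 96-well plates underlies each endpoint, interpolated linearly between surrounding concentrations. Here, GI50 denotes the concentration required for 50% inhibition of growth.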 The source made the active and inactive calls. Rule as the data show it: active = GI50 up to about 1.1 µM and inactive = higher.

Assays:
Assay in all cases: inhibition of tumour cell growth, NCI panel, 48 h
UACC-62 = system: UACC-62
NCI-H23 = system: NCI-H23
CCRF-CEM = system: CCRF-CEM
SK-MEL-28 = system: SK-MEL-28
LXFL 529 = system: LXFL 529
MOLT-4 = system: MOLT-4
UACC-257 = system: UACC-257
RXF 393 = system: RXF 393
A549 = system: A549
SNB-19 = system: SNB-19
COLO 205 = system: COLO 205
M14 = system: M14
KM12 = system: KM12
SK-MEL-2 = system: SK-MEL-2
RPMI-8226 = system: RPMI-8226
TK-10 = system: TK-10
SNB-75 = system: SNB-75
IGROV-1 = system: IGROV-1
U-251 = system: U-251
SN12C = system: SN12C
UO-31 = system: UO-31
OVCAR-8 = system: OVCAR-8
EKVX = system: EKVX
SF-539 = system: SF-539
HOP-92 = system: HOP-92
HCT-15 = system: HCT-15
786-0 = system: 786-0
CAKI-1 = system: CAKI-1
KM-20L2 = system: KM-20L2
A498 = system: A498
OVCAR-5 = system: OVCAR-5
SW-620 = system: SW-620
SK-MEL-5 = system: SK-MEL-5
M19-MEL = system: M19-MEL
DMS-114 = system: DMS-114
HT-29 = system: HT-29
DMS-273 = system: DMS-273
SK-OV-3 = system: SK-OV-3
HCT-116 = system: HCT-116
NCI-H522 = system: NCI-H522
HOP-18 = system: HOP-18
ACHN = system: ACHN
Malme-3M = system: Malme-3M
K562 = system: K562
LOX IMVI = system: LOX IMVI
SNB-78 = system: SNB-78
OVCAR-4 = system: OVCAR-4
SF-268 = system: SF-268
OVCAR-3 = system: OVCAR-3
NCI-H226 = system: NCI-H226
SR = system: SR
SF-295 = system: SF-295
HOP-62 = system: HOP-62
NCI-H460 = system: NCI-H460
HL-60 = system: HL-60
HCC 2998 = system: HCC 2998
DLD-1 = system: DLD-1

Q: For O=C1OC(c2ccccc2)=N/C1=C\c1c(O)cc(O)cc1O, which GI50 (UACC-62) is on record?
A: 27.9 µM (inactive)

Q: And the GI50 (NCI-H23)?
A: > 100 µM (inactive)

Q: And the GI50 (CCRF-CEM)?
A: > 100 µM (inactive)

Q: What about the GI50 (SK-MEL-28) of the same compound?
A: > 100 µM (inactive)

Q: And the GI50 (LXFL 529)?
A: 41 µM (inactive)

Q: And the GI50 (MOLT-4)?
A: > 100 µM (inactive)

Q: And the GI50 (UACC-257)?
A: > 100 µM (inactive)

Q: What about the GI50 (RXF 393) of the same compound?
A: > 100 µM (inactive)

Q: And the GI50 (A549)?
A: > 100 µM (inactive)

Q: What about the GI50 (SNB-19) of the same compound?
A: > 100 µM (inactive)

Q: And the GI50 (COLO 205)?
A: > 100 µM (inactive)

Q: And the GI50 (M14)?
A: 60.3 µM (inactive)

Q: What about the GI50 (KM12) of the same compound?
A: > 100 µM (inactive)

Q: What about the GI50 (SK-MEL-2) of the same compound?
A: > 100 µM (inactive)

Q: What about the GI50 (RPMI-8226) of the same compound?
A: > 100 µM (inactive)

Q: And the GI50 (TK-10)?
A: > 100 µM (inactive)

Q: And the GI50 (SNB-75)?
A: > 100 µM (inactive)

Q: And the GI50 (IGROV-1)?
A: > 100 µM (inactive)

Q: And the GI50 (U-251)?
A: > 100 µM (inactive)

Q: What about the GI50 (SN12C) of the same compound?
A: > 100 µM (inactive)

Q: What about the GI50 (UO-31) of the same compound?
A: > 100 µM (inactive)

Q: What about the GI50 (OVCAR-8) of the same compound?
A: > 100 µM (inactive)

Q: What about the GI50 (EKVX) of the same compound?
A: > 100 µM (inactive)

Q: What about the GI50 (SF-539) of the same compound?
A: > 100 µM (inactive)

Q: And the GI50 (HOP-92)?
A: > 100 µM (inactive)

Q: What about the GI50 (HCT-15) of the same compound?
A: 38 µM

Q: And the GI50 (786-0)?
A: > 100 µM (inactive)

Q: What about the GI50 (CAKI-1) of the same compound?
A: > 100 µM (inactive)

Q: And the GI50 (KM-20L2)?
A: > 100 µM (inactive)

Q: And the GI50 (A498)?
A: > 100 µM (inactive)

Q: What about the GI50 (OVCAR-5) of the same compound?
A: > 100 µM (inactive)

Q: What about the GI50 (SW-620) of the same compound?
A: > 100 µM (inactive)

Q: What about the GI50 (SK-MEL-5) of the same compound?
A: > 100 µM (inactive)

Q: And the GI50 (M19-MEL)?
A: 83.6 µM (inactive)

Q: And the GI50 (DMS-114)?
A: > 100 µM (inactive)

Q: And the GI50 (HT-29)?
A: > 100 µM (inactive)

Q: And the GI50 (DMS-273)?
A: 94.2 µM (inactive)

Q: What about the GI50 (SK-OV-3) of the same compound?
A: > 100 µM (inactive)

Q: And the GI50 (HCT-116)?
A: 96.6 µM (inactive)

Q: And the GI50 (NCI-H522)?
A: 47.2 µM (inactive)

Q: And the GI50 (HOP-18)?
A: > 100 µM (inactive)

Q: And the GI50 (ACHN)?
A: 53.2 µM (inactive)

Q: What about the GI50 (Malme-3M) of the same compound?
A: > 100 µM (inactive)

Q: And the GI50 (K562)?
A: 32.4 µM (inactive)

Q: What about the GI50 (LOX IMVI) of the same compound?
A: 78.3 µM (inactive)

Q: What about the GI50 (SNB-78) of the same compound?
A: > 100 µM (inactive)

Q: And the GI50 (OVCAR-4)?
A: > 100 µM (inactive)

Q: What about the GI50 (SF-268) of the same compound?
A: 99.5 µM (inactive)

Q: What about the GI50 (OVCAR-3) of the same compound?
A: > 100 µM (inactive)

Q: Which results are given for CC(C)CCS(=O)(=O)OCCCCOS(=O)(=O)CCC(C)C?
A: GI50 (UACC-62): > 100 µM (inactive); GI50 (NCI-H23): > 100 µM (inactive); GI50 (CCRF-CEM): > 100 µM (inactive); GI50 (SK-MEL-28): > 100 µM (inactive); GI50 (LXFL 529): > 100 µM (inactive); GI50 (MOLT-4): > 100 µM (inactive); GI50 (UACC-257): > 100 µM (inactive); GI50 (RXF 393): > 100 µM (inactive); GI50 (A549): > 100 µM (inactive); GI50 (SNB-19): > 100 µM (inactive); GI50 (NCI-H226): > 100 µM (inactive); GI50 (SR): > 100 µM (inactive); GI50 (COLO 205): > 100 µM (inactive); GI50 (M14): 16.1 µM (inactive); GI50 (KM12): > 100 µM (inactive); GI50 (RPMI-8226): > 100 µM (inactive); GI50 (SF-295): > 100 µM (inactive); GI50 (TK-10): > 100 µM (inactive); GI50 (SNB-75): > 100 µM (inactive); GI50 (IGROV-1): > 100 µM (inactive); GI50 (U-251): > 100 µM (inactive); GI50 (SN12C): > 100 µM (inactive); GI50 (HOP-62): 13.9 µM (inactive); GI50 (UO-31): > 100 µM (inactive); GI50 (OVCAR-8): > 100 µM (inactive); GI50 (NCI-H460): > 100 µM (inactive); GI50 (EKVX): > 100 µM (inactive); GI50 (SF-539): > 100 µM (inactive); GI50 (HCT-15): > 100 µM; GI50 (786-0): > 100 µM (inactive); GI50 (KM-20L2): > 100 µM (inactive); GI50 (HL-60): > 100 µM (inactive); GI50 (SW-620): > 100 µM (inactive); GI50 (M19-MEL): > 100 µM (inactive); GI50 (HCC 2998): > 100 µM (inactive); GI50 (DMS-114): > 100 µM (inactive); GI50 (HT-29): > 100 µM (inactive); GI50 (DMS-273): > 100 µM (inactive); GI50 (SK-OV-3): > 100 µM (inactive); GI50 (HCT-116): > 100 µM (inactive); GI50 (NCI-H522): > 100 µM (inactive); GI50 (DLD-1): > 100 µM (inactive); GI50 (ACHN): > 100 µM (inactive); GI50 (Malme-3M): > 100 µM (inactive); GI50 (K562): > 100 µM (inactive); GI50 (LOX IMVI): > 100 µM (inactive); GI50 (SNB-78): > 100 µM (inactive); GI50 (SF-268): > 100 µM (inactive); GI50 (OVCAR-3): 16.4 µM (inactive)
